{"source": "patent US6951868B2", "about": "“Azabicyclic-phenyl-fused-heterocyclic compounds for treatment of disease” (Pfizer Inc., priority 2001, dated 2005)", "biological_target": "T1, chimeric α7-5HT3 ion channel (UniProt P23979+P36544, M226I/T225I)", "T1 construct": "pore forming region of the mouse 5HT3 receptor (fusion partner, same polypeptide); expressed in transfected cells", "T1 sequence (P36544+P23979 fused P36544:T225I/P36544:M226I)": "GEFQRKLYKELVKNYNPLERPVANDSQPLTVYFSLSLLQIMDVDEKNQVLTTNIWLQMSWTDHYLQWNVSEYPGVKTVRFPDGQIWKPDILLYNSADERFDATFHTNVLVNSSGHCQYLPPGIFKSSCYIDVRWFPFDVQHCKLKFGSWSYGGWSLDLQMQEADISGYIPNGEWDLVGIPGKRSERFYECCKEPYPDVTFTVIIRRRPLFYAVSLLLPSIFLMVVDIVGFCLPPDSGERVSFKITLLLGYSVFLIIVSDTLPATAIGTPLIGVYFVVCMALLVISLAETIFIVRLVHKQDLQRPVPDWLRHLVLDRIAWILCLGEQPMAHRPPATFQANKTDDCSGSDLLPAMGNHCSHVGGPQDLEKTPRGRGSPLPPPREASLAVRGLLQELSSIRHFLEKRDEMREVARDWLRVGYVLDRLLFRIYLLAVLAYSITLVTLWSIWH", "assay": "Cell-based FLIPR assay measuring the EC50 of α7 nAChR agonists on the chimeric α7-5HT3 receptor", "design": "species or system human/mouse", "conditions": "SH-EP1 cells expressing chimeric α7-5HT3 ion channel; increase in intracellular calcium (Calcium Green fluorescence, FLIPR)", "excerpt": "Cell-based Assay for Measuring the EC50 of α7 nAChR Agonists\nConstruction and Expression of the α7-5HT3 Receptor:\nThe cDNA encoding the N-terminal 201 amino acids from the human α7 nAChR that contain the ligand binding domain of the ion channel was fused to the cDNA encoding the pore forming region of the mouse 5HT3 receptor as described by Eisele J L, et al., Chimaeric nicotinic-serotonergic receptor combines distinct ligand binding and channel specificities, Nature (1993), December 2;366(6454):479-83, and modified by Groppi, et al., WO 00/73431. The chimeric α7-5HT3 ion channel was inserted into pGS175 and pGS179 which contain the resistance genes for G-418 and hygromycin B, respectively. […]\nTo assay the activity of the α7-5HT3 ion channel, cells expressing the channel were plated into each well of either a 96 or 384 well dish (Corning #3614) and grown to confluence prior to assay. […] The activity of compounds on the chimeric α7-5HT3 ion channel was analyzed on FLIPR. […] Fluorescent emission was measured above 525 nanometers with an appropriate F-stop to maintain a maximal signal to noise ratio. Agonist activity of each compound was measured by directly adding the compound to cells expressing the chimeric α7-5HT3 ion channel and measuring the resulting increase in intracellular calcium that is caused by the agonist-induced activation of the chimeric ion channel. […]"}
{"compound": "O=C(N[C@H]1CN2CCC1CC2)c1ccc2c(c1)OCC(COCc1ccccc1)O2.O=C(O)/C=C/C(=O)O", "note": "(single isomer, unassigned) [Example 6(b)]", "values": [{"measurement": "Agonist activity (result in words)", "value": "inactive"}]}
{"compound": "Cl.O=C(N[C@H]1CN2CCC1CC2)c1ccc2c(c1)O[C@H](COc1ccccc1)CO2", "note": "[Example 12, (3R)-N-[(3R)-1-Azabicyclo[2.2.2]oct-3-yl]-3-(phenoxymethyl)-2,3-dihydro-1,4-benzodioxine-6-carboxamide Hydrochloride]", "values": [{"measurement": "Agonist activity (result in words)", "value": "inactive"}]}
